Data taken from patent publication US20250026776A1, “Method for Simultaneously Separating and Purifying Two Galloylated Myricitrins from Morella rubra Leaves, and Use therefor” (Zhejiang University, priority 2022, published 2025).
pIC50: −log10 of the molar value. Read-outs that look alike come from different tables or passages of the source.

How the values were obtained:
[1] = target: α-glucosidase; assay: α-glucosidase inhibition assay (PNPG hydrolysis, absorbance at 405 nm); type: biochemical; conditions: α-glucosidase 0.2 U/mL, phosphate buffer pH 6.8, 37° C., PNPG substrate, IC50 calculated with SPSS, read-out: α-glucosidase inhibitory activity IC50
Experimental: The concentration of pNP in the reaction solution, as measured by a plate reader, allows for the detection of the sample's ability to inhibit the activity of α-glucosidase. […] The mixture is then incubated at 37° C. for 15 minutes, after which 20 μL of PNPG solution (2.5 mM) is added. After a 15-minute reaction at 37° C., 80 μL of Na2CO3 solution (2.5 mM) is added, and the absorbance at 405 nm (ODtest) is measured using a plate reader. […] The formula for calculating the enzyme activity inhibition rate is as follows: [formula] The inhibitory effect of the tested monomers on α-glucosidase a gradient concentrations was used to calculate the IC50 values with SPSS.

[2] = test system: α-glucosidase; conditions: cited from earlier work

For `CC1OC(Oc2c(-c3cc(O)c(O)c(O)c3)oc3cc(O)cc(O)c3c2=O)C(OC(=O)c2cc(O)c(O)c(O)c2)C(O)C1O` [myricetin-3-O-(2″-galloyl)-α-L-rhamnoside], the pIC50 [1] was 5.88.
`CC1OC(Oc2c(-c3cc(O)c(O)c(O)c3)oc3cc(O)cc(O)c3c2=O)C(O)C(O)C1OC(=O)c1cc(O)c(O)c(O)c1` [myricetin-3-O-(4″-galloyl)-α-L-rhamnoside] showed a pIC50 ([1]; listed as myricetin-3-O-(4″-O-galloyl)-α-L-rhamnoside) of 4.81 and a pIC50 [1] of 5.75.
In the case of `O=c1c(O)c(-c2cc(O)c(O)c(O)c2)oc2cc(O)cc(O)c12` [myricetin], the pIC50 [1] is listed as 5.75, the “rank of α-glucosidase inhibitory activity among 27 dietary flavonoids” value ([2]; comparative study of 27 dietary flavonoids (Jia Y, et al., 2019)) is listed as “strongest inhibitor” and the “rank of α-glucosidase inhibitory activity among 15 types of flavonoids” value ([2]; report on 15 types of flavonoids (He C., et al., 2019)) is listed as “strongest inhibitory effect”.
